# Reference: patent publication US20230212239A1, “INHIBITORS OF CBL AUTOINHIBITION AND RELATED METHODS” (THE HOSPITAL FOR SICK CHILDREN, priority 2020, published 2023)
# Where a chain is given by its changes, count along the chain named. Names and notes keep the numbering of the source.
# T1: purified recombinant CBL protein containing the TKBD-LHR-RING region (Homo sapiens, UniProt P22681)
# T1 construct: Residues 25-357 and 2-436 of CBL were cloned in frame into pGEX4T-1; GST (N); made in house
# T1 sequence (P22681 2-436): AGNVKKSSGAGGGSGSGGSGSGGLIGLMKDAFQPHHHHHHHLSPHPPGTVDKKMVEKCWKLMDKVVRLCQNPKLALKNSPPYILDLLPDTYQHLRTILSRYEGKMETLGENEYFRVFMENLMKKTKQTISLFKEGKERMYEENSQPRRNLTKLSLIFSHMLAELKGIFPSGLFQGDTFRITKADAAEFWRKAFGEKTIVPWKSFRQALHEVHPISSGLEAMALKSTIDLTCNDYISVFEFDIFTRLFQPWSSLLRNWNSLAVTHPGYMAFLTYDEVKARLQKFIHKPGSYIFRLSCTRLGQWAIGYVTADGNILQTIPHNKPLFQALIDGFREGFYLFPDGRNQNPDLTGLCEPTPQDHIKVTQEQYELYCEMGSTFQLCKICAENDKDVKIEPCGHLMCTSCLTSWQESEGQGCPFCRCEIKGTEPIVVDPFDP
# B1: SLAP L241R: mouse SLAP interface mutant analogous to SLAP2 L241R (protein, UniProt Q60898 2-281, looked up, variant L241R)
# Src-like-adapter: GNSMKSTSPPSERPLSSSEGLESDFLAVLTDYPSPDISPPIFRRGEKLRVISDEGGWWKAISLSTGRESYIPGICVARVYHGWLFEGLGRDKAEELLQLPDTKIGSFMIRESETKKGFYSLSVRHRQVKHYRIFRLPNNWYYISPRLTFQCLEDLVTHYSEVADGLCCVLTTPCLAQNIPAPTSHPSPCTSPGSPVTLRQKTFDWKRVSRLQEGSEGAENPLRVDESLFSYGLRESIASYRSLTGDDSSSFDRKKKSLSLMYTGSKRKSSFFSAPQYFED
# B2: SLAP2 L241R: SLAP2 interface point mutant Leu241 to Arg (protein)
# chain: EAERSKATAVALGSFPAGGPAELSLRLGEPLTIVSEDGDWWTVLSEVSGREYNIPSVHVAKVSHGWLYEGLSREKAEELLLLPGNPGGAFLIRESQTRRGSYSLSVRLSRPASWDRIRHYRIHCLDNGWLYISPRLTFPSLQALVDHYSELADDICCLLKEPCVLQRAGPLPGKDIPLPVTVQRTPLNWKELDSSLLFSEAATGEESLLSEGRRESLSFYISLNDEAVSLDDA
# modifications: left off: large carriers; small tags and cut ends
# notes: SLAP2 interface point mutant Leu241 to Arg
# B3: SLAP2 L245P: SLAP2 point mutant Leu245 to proline, expected to interrupt the helix (protein)
# chain: B2 chain with R213L, L217P
# modifications: left off: large carriers; small tags and cut ends
# notes: SLAP2 point mutant Leu245 to proline, expected to interrupt the helix
# B4: SLAP2 G240R: SLAP2 interface point mutant Gly240 to Arg (protein)
# chain: B2 chain with G212R, R213L
# modifications: left off: large carriers; small tags and cut ends
# notes: SLAP2 interface point mutant Gly240 to Arg
# B5: SLAP2 S244E: SLAP2 interface point mutant Ser244 to Glu (protein)
# chain: B2 chain with R213L, S216E
# modifications: left off: large carriers; small tags and cut ends
# notes: SLAP2 interface point mutant Ser244 to Glu
# System: CBL TKBD
# Experiment: Co-purification of CBL TKBD with Trx-His-SLAP2/SLAP (Duet co-expression, Ni-NTA, SDS-PAGE)
# Assay type: binding
# Conditions: low salt concentration (0.15 M NaCl)
# Text: To validate the CBL/SLAP2 binding interface, a series of mutants in a Duet co-expression vector system was generated for co-purification trials. The SLAP2 sequence was preceded by thioredoxin (Trx) and His-tag fusion proteins to allow co-purification of CBL TKBD that was bound to Trx-His-SLAP2 during the initial affinity chromatography purification step. Surface residues deemed to be important to the CBL/SLAP2 interface, but not CBL function or folding, were mutated to disrupt CBL/SLAP2 binding (FIG. 5C and FIG. 6). In our structure, SLAP2 Gly240 locates close to CBL Met269 and Ala270, such that mutation to a bulky Arg residue (G240R) could cause sterical constraints. Similarly, SLAP2 Leu241 is situated in a hydrophobic cleft composed of CBL Ala223, Trp258, and Val263; mutation to Arg (L241R) was predicted to disturb this binding pocket. Mutation of CBL Ala223 to Arg (A223R) would likewise disrupt this pocket, with CBL/SLAP2 double mutant A223R/L241R predicted to drastically disturb binding through sterical constraints and charge repulsion. (For clarity, CBL mutations herein are indicated in italics, SLAP2 in regular font.) Similarly, single or double mutation of CBL Ser226 or SLAP2 Ser244, whose side chain hydroxyl groups are in close proximity to one another, to charged Glu residues (S226E and S244E) was anticipated to interfere with CBL/SLAP2 binding. Finally, given that SLAP2 binds CBL as an α-helix, mutation of Leu245, located in the center of this α-helix, to proline (L245P) was expected to interrupt the helical structure and thus prevent SLAP2 binding. […] However, double mutation of the CBL/SLAP2 interface (A223R/L241R and S226E/S244E; FIG. 5D, lower panel) was not tolerated, even at low salt concentration.
# For co-purification of CBL and SLAP2/SLAP, Duet-His-hSLAP2-CBL 29-261 Δ198-229 and 29-254 Δ198-229, Duet-His-Δlinker-hSLAP2-CBL WT and point mutants, and Duet-His-mSLAP-CBL WT and point mutants were overexpressed in E. coli BL-21 as above or TKB1 competent cells (Stratagene) as per manufacturer’s instructions, and cells harvested as above (except 100 mL of LB, overnight at 16-18° C., and 0.35-0.5 mM IPTG induction). Cell pellets were resuspended in either high or low salt (as for high salt except 25 mM HEPEs pH 7.5, 150 mM NaCl) lysis buffer and purified as above on Ni-NTA agarose (Qiagen) with wash buffer (25 mM HEPEs pH 7.5, 150 mM NaCl, 2% glycerol, 20 mM imidazole, 10 mM βME). Bead slurry was mixed with SDS 2X loading buffer (125 mM Tris pH 6.8, 4% SDS, 20% glycerol, 0.715 M βME, bromophenol blue), boiled, and analyzed by 10 or 12.5% SDS-PAGE, stained with Coomassie blue.
row,Molecule,CBL TKBD co-purification
1,B1,abrogated CBL co-purification
2,B2,abrogated CBL co-purification
3,B3,abrogated CBL co-purification
4,B4,tolerated
5,B5,tolerated

# Molecular target: T1, purified recombinant CBL protein containing the TKBD-LHR-RING region
# Experiment: High-throughput in vitro autoubiquitination assay (modified ELISA-based LifeSensors assay, 384 well), hit validation
# Assay type: biochemical
# Conditions: validation: triplicate wells; confirmed at percent activation cutoff of at least 20% in at least 2 wells
# Text: As an approach to identify novel compounds that mimic SLAP2 binding, and thus stimulate CBL E3 ligase activity, an in vitro autoubiquitination assay was developed based on a modification of a commercially available ELISA based assay (LifeSensors, Inc) and adapted to a 384 well high throughput screen (HTS) format (FIG. 13). The assay uses purified recombinant CBL protein containing the TKBD-LHR-RING region and has been optimized using reference controls; phosphorylated CBL, and CBL with or without addition of purified pSLAP2. Reaction components contained in a master mix (E1, E2, free Ub), test compound and purified CBL are free in solution allowing native protein interactions, and polyubiquitin chains are captured by an immobilized ubiquitin binding domain and quantified using an anti-ubiquitin antibody detection method.
# Peptidomimetic Screen: A library of 3000 α-helix and β/γ-turn peptidomimetic compounds were screened across 10 384 well plates. A primary screen yielded 14 hits from the OICR Peptidomimetic library (0.47% hit rate). A hit was defined as any compound producing a luminescent signal at least 4 Standard Deviations from the mean of all compounds on the plate (FIG. 14).
# Validation experiment: Triplicate wells of hit compounds were randomly dispersed on plates and hits were confirmed based on a percent activation cutoff of at least 20% in at least 2 wells.
row,confirmed hit: CBL activation,Molecule
1,active,"Cc1cc2c(cc1C(=O)NCc1c(F)cccc1Cl)OCCCO2 [Hit 1, N-[(2-chloro-6-fluorophenyl)methyl]-8-methyl-3,4-dihydro-2H-1,5-benzodioxepine-7-carboxamide]"
2,active,"O=S(=O)(Nc1cccc(Br)c1)c1ccc(-c2nnc(C3CCC3)o2)s1 [Hit 2, N-(3-bromophenyl)-5-(5-cyclobutyl-1,3,4-oxadiazol-2-yl)thiophene-2-sulfonamide]"
3,active,"COc1ccc(S(=O)(=O)Nc2cccn3c(C4CCC4)nnc23)cc1Cl [Hit 3, 3-chloro-N-{3-cyclobutyl-[1,2,4]triazolo[4,3-a]pyridin-8-yl}-4-methoxybenzene-1-sulfonamide]"
4,active,"COc1ccc(CNC(=O)C2(C)CCCN(S(=O)(=O)c3cccc(C(F)(F)F)c3)C2)cc1 (stereo not drawn) [Hit 4, N-[(4-methoxyphenyl)methyl]-3-methyl-1-[3-(trifluoromethyl)benzenesulfonyl]piperidine-3-carboxamide]"
5,active,"O=S(=O)(Nc1ccc(Cl)c(C(F)(F)F)c1)c1cc(-c2noc(C3CCC3)n2)cs1 [Hit 5, N-[4-chloro-3-(trifluoromethyl)phenyl]-4-(5-cyclobutyl-1,2,4-oxadiazol-3-yl)thiophene-2-sulfonamide]"
6,active,"O=S(=O)(Nc1ccc(OC(F)(F)F)cc1)c1ccc(-c2cnc(C3CCC3)o2)s1 [Hit 6, 5-(2-cyclobutyl-1,3-oxazol-5-yl)-N-[4-(trifluoromethoxy)phenyl]thiophene-2-sulfonamide]"
7,active,"Cc1ccc(S(=O)(=O)N2C(=O)CCC2C(=O)Nc2cccc3ccccc23)cc1 (stereo not drawn) [Hit 7, 1-(4-methylbenzenesulfonyl)-N-(naphthalen-1-yl)-5-oxopyrrolidine-2-carboxamide]"
8,active,"Cc1ccc(CN2CCN(CC(=O)Nc3ccc(C(C)C)cc3)C(=O)C2=O)cc1 [Hit 8, 2-{4-[(4-methylphenyl)methyl]-2,3-dioxopiperazin-1-yl}-N-[4-(propan-2-yl)phenyl]acetamide]"
9,active,"O=C(NCC(=O)N1CCN(c2ccc(-c3noc(C4CCC4)n3)cc2)CC1)c1ccco1 [Hit 9, N-(2-{4-[4-(5-cyclobutyl-1,2,4-oxadiazol-3-yl)phenyl]piperazin-1-yl}-2-oxoethyl)furan-2-carboxamide]"
10,active,"CC(C)OCCCNC(=O)c1cnc2scc(-c3ccccc3)n2c1=O [Hit 10, 5-oxo-3-phenyl-N-[3-(propan-2-yloxy)propyl]-5H-[1,3]thiazolo[3,2-a]pyrimidine-6-carboxamide]"
